What was measured:
hTLR8 = biological target: T1, hTLR8 (Homo sapiens, UniProt Q9NR97); test: Agonistic effect on hTLR8, HEK-Blue hTLR8 cells, alkaline phosphatase secretion; format: cell-based; conditions: 16 hours
T1 construct: host or cells: HEK-Blue hTLR8 cells
T1 sequence (Q9NR97 27-1041): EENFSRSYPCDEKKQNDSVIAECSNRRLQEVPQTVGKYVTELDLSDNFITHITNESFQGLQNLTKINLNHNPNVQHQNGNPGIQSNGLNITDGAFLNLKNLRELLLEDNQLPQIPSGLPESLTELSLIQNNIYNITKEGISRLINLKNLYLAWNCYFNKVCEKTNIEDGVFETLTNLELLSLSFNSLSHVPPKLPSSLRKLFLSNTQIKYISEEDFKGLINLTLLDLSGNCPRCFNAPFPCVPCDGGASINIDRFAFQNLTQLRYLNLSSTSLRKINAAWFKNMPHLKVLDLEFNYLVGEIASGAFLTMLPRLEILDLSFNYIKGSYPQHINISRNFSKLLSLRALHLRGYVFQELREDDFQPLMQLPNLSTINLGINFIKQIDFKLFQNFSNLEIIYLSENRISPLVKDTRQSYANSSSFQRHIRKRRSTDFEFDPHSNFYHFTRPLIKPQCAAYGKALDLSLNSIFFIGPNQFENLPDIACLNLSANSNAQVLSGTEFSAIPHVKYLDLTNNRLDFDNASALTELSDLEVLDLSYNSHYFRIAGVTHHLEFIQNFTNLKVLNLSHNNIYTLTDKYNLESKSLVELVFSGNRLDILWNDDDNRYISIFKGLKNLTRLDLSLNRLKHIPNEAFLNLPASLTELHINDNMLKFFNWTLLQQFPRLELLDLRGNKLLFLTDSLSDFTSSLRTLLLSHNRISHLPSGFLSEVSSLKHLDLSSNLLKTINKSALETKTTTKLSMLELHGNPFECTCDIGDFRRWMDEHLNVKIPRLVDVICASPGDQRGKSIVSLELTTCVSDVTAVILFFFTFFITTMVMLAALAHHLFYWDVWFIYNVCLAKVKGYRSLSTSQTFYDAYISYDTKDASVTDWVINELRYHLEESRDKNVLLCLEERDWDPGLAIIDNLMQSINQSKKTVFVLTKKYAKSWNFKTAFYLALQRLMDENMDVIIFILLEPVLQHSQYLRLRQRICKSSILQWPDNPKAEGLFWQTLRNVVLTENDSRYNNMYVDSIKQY
Method: Experimental Example 4: Agonistic Effect of the Compound of the Invention on hTLR8
In this test, the secretion of alkaline phosphatase in HEK-Blue cells was measured to test the activating effect of the compound of the invention on TLR8 signaling pathway, so as to evaluate the specificity of the agonistic effect of the compound on NLRP3 pathway.
Reagents: DMEM (High glucose); FBS (fetal bovine serum) (Gibco); QUANTI-Blue/InvivoGen/rep-qb2
Cells: HEK-Blue™ hTLR8 cells (human TLR 8 cells) (InvivoGen) Experimental Procedures:
1) The HEK-Blue™ hTLR8 cells in a logarithmic growth phase were trypsinized and resuspended in the medium to a concentration of 2×10^6 cells/mL. 50 μL/well of the cell suspension was added to a 96-well plate. An appropriate amount of 10 mM DMSO solution of the compound to be tested was taken and diluted to a concentration of 2× test concentration with the medium. 50 μL/well was added to the cells in the 96-well plate. The plate was incubated in an incubator at 37° C. and 5% CO2 for 16 hours. The medium was DMEM (High glucose) containing 10% FBS. 2) After the cell incubation, 10 μL of cell culture supernatant was transferred to a 96-well plate. 90 μL/well of QUANTI-Blue detection solution was added, and the mixture was incubated at 37° C. for 3 hours. OD620 was read using a microplate reader.
3) The EC50 of the effect of the tested compound to stimulate hTLR8 was fitted by the GraphPad software log(agonist) vs. response—Variable slope four-parameter method.

THP1-defNLRP3 cells = test: Agonistic effect on the expression of IL-1β in NLRP3 deficient THP1 cells (THP1-defNLRP3) after PMA-induced differentiation (HTRF); format: cell-based, human; conditions: Homo sapiens, THP-1; IL-1β level, PMA-differentiated NLRP3 deficient THP1 cells, 6 hours; highest test concentration 30 μM; read-out: hNLRP3 EC50 (μM) (THP-1defNLRP3)
Text: Experimental Example 2: Agonistic Effect of the Compound of the Invention on the Expression of IL-1β in NLRP3 Deficient THP1 Cells (THP1-defNLRP3 Cells) after PMA-Induced Differentiation
In this test, a HTRF detection method was used to test the effect of the compound of the invention on the level of IL-1β in THP1-defNLRP3 cells to evaluate the specificity of the agonistic effect of the compound on hNLRP3 inflammasome or hNLRP3 inflammasome pathway.
Reagents: as described in Experimental Example 1
Cell: THP1-defNLRP3 (InvivoGen)
Kit: IL-1β assay kit (CISBIO)
1) THP1-defNLRP3 cells in a logarithmic growth phase were seeded in a T75 culture flask at a density of 5×10^5 cells/well, and cultured in a cell incubator at 37° C., 5% CO2 for 24 hours, and then 1 μM PMA was used to induce THP1-defNLRP3 suspension cells to become adherent macrophages. The medium was RPMI 1640 containing 10% heat-inactivated FBS and 0.05 mM β-mercaptoethanol.
2) The cells were induced and cultured for 24 hours. Then the adherent cells were trypsinized and centrifuged at 1000 rpm for 5 min. The supernatant was removed, and the cells were resuspended to a density of 2×10^6 cells/mL in RPMI 1640 medium containing 2% heat-inactivated FBS. 50 μL/well of the cell resuspension was taken and spread on a 96-well plate such that the number of cells in each well was 1×10^5.
3) An appropriate amount of 10 mM DMSO solution of the compound to be tested was taken and diluted to a concentration of 2× test concentration with RPMI 1640 medium containing 2% heat-inactivated FBS. 50 μL/well of the dilution was added to the cells in the 96-well plate, and mixed well. The plate was incubated in a cell incubator at 37° C., 5% CO2 for 6 hours. The supernatant was collected, and the level of IL-1β was measured in accordance with the instructions of the IL-1β detection kit.
4) EC50 was fitted by the GraphPad software log(agonist) vs. response—Variable slope four-parameter method.

Row | Structure (SMILES) | EC50 (hTLR8) [µM] | EC50 (THP1-defNLRP3 cells) [µM]
1 | C[C@@H]1CN(CCNc2cc(N)nc3cc(-c4ccn[nH]4)sc23)C[C@H](C)O1 [Compound 117, N^7-(2-((2S,6R)-2,6-dimethylmorpholino)ethyl)-2-(1H-pyrazol-5-yl)thieno[3,2-b]pyridine-5,7-diamine] | > 100 | > 30
2 | N#CC1(CNc2cc(N)nc3cc(-c4ccn[nH]4)sc23)CC1 [Compound 119] | > 100 | > 30
3 | Nc1cc(NCC2CCOCC2)c2sc(-c3ccn[nH]3)cc2n1 [Compound 120, 2-(1H-pyrazol-5-yl)-N^7-((tetrahydro-2H-pyran-4-yl)methyl)thieno[3,2-b]pyridine-5,7-diamine] | > 100 | > 30
4 | CC1(CNc2cc(N)nc3cc(-c4ccn[nH]4)sc23)COC1 [Compound 121, N^7-((3-methyloxetan-3-yl)methyl)-2-(1H-pyrazol-5-yl)thieno[3,2-b]pyridine-5,7-diamine] | > 100 | > 30
5 | CC(CO)(CO)CNc1cc(N)nc2cc(-c3ccn[nH]3)sc12 [Compound 122] | > 100 | > 30
6 | Cc1c(-c2cc[nH]n2)sc2c(NCCN3CCOCC3)cc(N)nc12 [Compound 153] | > 100 | > 30
7 | Cc1c(-c2cc[nH]n2)sc2c(NCC3CC3)cc(N)nc12 [Compound 156] | > 100 | > 30
8 | Cc1c(-c2ccn[nH]2)sc2c(NC[C@@H]3CCCO3)cc(N)nc12 [Compound 157] | > 100 | > 30
9 | Cc1c(-c2cc[nH]n2)sc2c(NCCCO)cc(N)nc12 [Compound 159] | > 100 | > 30
10 | Nc1cc(N2CCN(C3CCCC3)CC2)c2sc(-c3ccn[nH]3)cc2n1 [Compound 160] | > 100 | > 30
11 | CN1CCN(c2cc(N)nc3cc(-c4ccn[nH]4)sc23)CC1 [Compound 161] | > 100 | > 30
12 | CC(C)N1CCN(c2cc(N)nc3cc(-c4ccn[nH]4)sc23)CC1 [Compound 162] | > 100 | > 30
13 | Nc1cc(N2CCN(C3CC3)CC2)c2sc(-c3ccn[nH]3)cc2n1 [Compound 163] | > 100 | > 30
14 | CS(=O)(=O)N1CCN(c2cc(N)nc3cc(-c4ccn[nH]4)sc23)CC1 [Compound 164] | > 100 | > 30
15 | COC1(C)CCN(c2cc(N)nc3cc(-c4ccn[nH]4)sc23)CC1 [Compound 165] | > 100 | > 30
16 | Nc1cc(N2CCCC(O)C2)c2sc(-c3ccn[nH]3)cc2n1 (stereo not shown) [Compound 166] | > 100 | > 30

Row | Structure (SMILES) | EC50 (hTLR8) [µM] | EC50 (THP1-defNLRP3 cells) [µM]
17 | Nc1cc(N2CCN(C3CCCCC3)CC2)c2sc(-c3ccn[nH]3)cc2n1 [Compound 167] | > 100 | > 30
18 | C[C@H]1CN(c2cc(N)nc3cc(-c4ccn[nH]4)sc23)C[C@H](C)O1 [Compound 168] | > 100 | > 30
19 | C[C@@H]1CN(c2cc(N)nc3cc(-c4ccn[nH]4)sc23)C[C@H](C)O1 [Compound 169] | > 100 | > 30
20 | Nc1cc(N2CCOCC2)c2sc(-c3ccn[nH]3)cc2n1 [Compound 170] | > 100 | > 30
21 | CC1(C)CN(c2cc(N)nc3cc(-c4ccn[nH]4)sc23)CCO1 [Compound 171] | > 100 | > 30
22 | Nc1cc(N2CCC(O)CC2)c2sc(-c3ccn[nH]3)cc2n1 [Compound 172] | > 100 | > 30
23 | CC1(C)CCN(c2cc(N)nc3cc(-c4ccn[nH]4)sc23)CC1 [Compound 173] | > 100 | > 30
24 | Nc1cc(N2CCN(c3ccccc3)CC2)c2sc(-c3ccn[nH]3)cc2n1 [Compound 174] | > 100 | > 30
25 | Nc1cc(N2CCNCC2)c2sc(-c3ccn[nH]3)cc2n1 [Compound 175] | > 100 | > 30
26 | Nc1cc(N2CC3CC(C2)N3)c2sc(-c3ccn[nH]3)cc2n1 [Compound 176] | > 100 | > 30
27 | C[C@@H]1COCCN1c1cc(N)nc2cc(-c3ccn[nH]3)sc12 [Compound 177] | > 100 | > 30
28 | Nc1cc(N2CCN(C=O)CC2)c2sc(-c3ccn[nH]3)cc2n1 [Compound 178] | > 100 | > 30
29 | Nc1cc(N2CC3CC(C2)N3C=O)c2sc(-c3ccn[nH]3)cc2n1 [Compound 179] | > 100 | > 30
30 | COC1CCN(c2cc(N)nc3cc(-c4ccn[nH]4)sc23)C1 (stereo not shown) [Compound 180] | > 100 | > 30
31 | Nc1cc(N2CC[C@@H](O)C2)c2sc(-c3ccn[nH]3)cc2n1 [Compound 181] | > 100 | > 30
32 | Nc1cc(N[C@H]2C[C@H]2CO)c2sc(-c3ccn[nH]3)cc2n1 [Compound 182s] | > 100 | > 30
